According to EP4741383A1, “COMPOUND AND USE THEREOF AS ANTI-CANCER DRUG” (Tyligand Bioscience (Shanghai) Limited, priority 2023, dated 2025):

The molecules below were run against T1, CYP2B6 (Homo sapiens, UniProt P20813) (assay: CYP450 inhibition in human liver microsomes, CYP2B6). Conditions: pH 7.4, read-out: % CYP inhibition @ 10 µM 2B6.
T1 construct: tissue Corning or Xenotech; host or cells: human liver microsomes
T1 sequence (P20813 1-491): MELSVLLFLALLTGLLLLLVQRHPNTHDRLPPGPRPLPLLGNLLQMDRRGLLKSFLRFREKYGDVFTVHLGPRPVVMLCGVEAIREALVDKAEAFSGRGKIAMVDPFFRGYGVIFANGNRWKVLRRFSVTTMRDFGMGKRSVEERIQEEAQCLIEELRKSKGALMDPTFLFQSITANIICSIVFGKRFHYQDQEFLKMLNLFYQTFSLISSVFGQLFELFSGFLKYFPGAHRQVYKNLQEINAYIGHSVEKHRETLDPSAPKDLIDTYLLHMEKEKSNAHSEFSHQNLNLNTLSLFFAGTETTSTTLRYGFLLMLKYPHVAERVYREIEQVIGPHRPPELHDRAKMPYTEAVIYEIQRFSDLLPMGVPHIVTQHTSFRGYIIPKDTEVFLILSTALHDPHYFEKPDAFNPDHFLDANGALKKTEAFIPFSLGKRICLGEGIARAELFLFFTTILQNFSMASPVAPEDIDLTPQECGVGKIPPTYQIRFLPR
Format: in vitro ADME
Description: According to standard methods in the field for the study of cytochrome P450 enzyme systems, such as the method described in Kerns, Edward H. and Di Li et al., Drug-like Properties: Concepts, Structure Design and Methods: from ADME to Toxicity Optimization (2008), San Diego, Academic Press, and Lin, Tong et al., In Vitro Assessment of Cytochrome P450 Inhibition: Strategies for Increasing LC/MS-Based Assay Throughput Using a One-Point IC50 Method and Multiplexing High-Performance Liquid Chromatography (J. Pharm. Sci. 2007, 96 (9), 2485). The inhibitory effect of the disclosed compounds on the cytochrome P450 enzyme system was similarly examined below.
Human liver microsomes were purchased from Corning or Xenotech. The test compounds were evaluated by detecting the metabolism of substrates for different Cyp450 isoforms by human liver microsomes.
0.1 M potassium phosphate buffer (K-buffer, pH 7.4) was pre-warmed.
100 mM K-buffer was prepared by mixing 9.5 mL of stock solution A (1 M potassium dihydrogen phosphate, prepared by dissolving 136.5 g of potassium dihydrogen phosphate in 1 L of Milli-Q water) with 40.5 mL of stock solution B (1 M potassium hydrogen phosphate, prepared by dissolving 174.2 g of potassium hydrogen phosphate in 1 L of Milli-Q water). The total volume was adjusted to 500 mL with Milli-Q water, and the buffer was titrated to pH 7.4 using KOH or H3PO4.
Test compound solution and specific inhibitor solution (400× dilution) were prepared in a 96-well plate. For the test compound, 8 µL of 10 mM test compound was transferred into 12 µL of ACN. For specific inhibitors of CYP1A2, CYP2C9, and CYP2D6: 12 µL of 1 mM α-naphthoflavone, 10 µL of 40 mM sulfaphenazole, 10 µL of 10 mM quinidine, and 8 µL of DMSO were mixed. For specific inhibitors of CYP3A4, CYP2B6, CYP2C8, and CYP2C19: 8 µL of DMSO stock solution was added to 12 µL of ACN.
A 4× diluted NADPH solution was prepared by dissolving 66.7 mg of NADPH in 10 mL of 0.1 M K-buffer (pH 7.4). […]

Question: Which inhibition at 10 min, 10 µM does the source give for `O=C(Nc1ccc(-c2cc3cc(F)c(-c4nnn[nH]4)cc3n2C2CCC2)cc1)C(=O)Nc1ccc(N2CCC(CO)CC2)cc1` [Example 23] here?
Answer: 1.32%

Question: `CC1(n2c(-c3ccc(NC(=O)C(=O)Nc4ccc(N5CCC6(CCOC6)CC5)cc4)cc3)cc3cc(F)c(-c4nnn[nH]4)cc32)CCC1` [Example 68] was tested. Which inhibition at 10 min, 10 µM did it give?
Answer: 7.06%

Question: For `O=C(Nc1ccc(-c2cc3cc(F)c(-c4nnn[nH]4)cc3n2C2CCC2)cc1)C(=O)Nc1ccc(N2CCC3(CCOC3)CC2)cc1` [Example 67], which inhibition at 10 min, 10 µM is on record?
Answer: 15.3%
